Reference: ChEMBL document CHEMBL1955788, “C-C bond formation at C-2 of a quinoline ring: synthesis of 2-(1H-indol-3-yl)quinoline-3-carbonitrile derivatives as a new class of PDE4 inhibitors” (Bioorg Med Chem, 2012)
Calls of active or inactive are those of the source. The rule behind the calls is not given here.

Key:
[1] = target: T1, 3',5'-cyclic-AMP phosphodiesterase 4B (Homo sapiens, UniProt Q07343); experiment: Inhibition of PDE4B expressed in HEK293 cells assessed as fold reduction in forskolin-stimulated cAMP production at 10 uM pretreated for 30 mins measured 4 hrs after forskolin challenge by luciferase reporter gene assay; type: functional, cell-based
[2] = target: T1, 3',5'-cyclic-AMP phosphodiesterase 4B; experiment: Inhibition of PDE4B expressed in HEK293 cells assessed as fold reduction in forskolin-stimulated cAMP production pretreated for 30 mins measured 4 hrs after forskolin challenge by luciferase reporter gene assay; type: functional, cell-based

T1 sequence (Q07343 whole entry): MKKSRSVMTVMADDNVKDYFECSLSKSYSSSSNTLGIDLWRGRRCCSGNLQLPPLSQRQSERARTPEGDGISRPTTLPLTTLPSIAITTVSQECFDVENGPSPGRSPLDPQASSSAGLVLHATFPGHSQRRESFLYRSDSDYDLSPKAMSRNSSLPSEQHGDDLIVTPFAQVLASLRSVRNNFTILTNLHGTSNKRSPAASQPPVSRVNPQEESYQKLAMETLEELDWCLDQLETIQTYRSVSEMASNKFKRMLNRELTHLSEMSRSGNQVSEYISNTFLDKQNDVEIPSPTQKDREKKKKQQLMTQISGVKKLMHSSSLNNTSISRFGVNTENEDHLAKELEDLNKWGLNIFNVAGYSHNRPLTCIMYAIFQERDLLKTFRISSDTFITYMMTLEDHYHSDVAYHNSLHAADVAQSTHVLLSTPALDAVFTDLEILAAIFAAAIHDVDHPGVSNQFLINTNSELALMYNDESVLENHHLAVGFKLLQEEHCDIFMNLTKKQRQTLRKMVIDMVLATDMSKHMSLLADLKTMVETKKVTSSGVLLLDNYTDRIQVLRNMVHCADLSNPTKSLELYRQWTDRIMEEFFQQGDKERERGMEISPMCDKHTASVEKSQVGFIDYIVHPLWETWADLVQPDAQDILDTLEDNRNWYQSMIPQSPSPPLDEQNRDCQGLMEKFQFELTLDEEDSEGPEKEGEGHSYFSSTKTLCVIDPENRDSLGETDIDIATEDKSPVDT

PDE4B inhibition activity (fold reduction in cAMP) [1] | EC50 [2] [nM] | inhibition [2] | SMILES
Active |  |  | Cc1ccc2nc(-c3c[nH]c4ccccc34)c(C#N)cc2c1
Active |  |  | N#Cc1cc2ccccc2nc1-c1c[nH]c2cc(F)c(F)cc12
Active |  |  | Cc1ccc2nc(-c3c[nH]c4ccc(Br)cc34)c(C#N)cc2c1
Active |  |  | COc1ccc2c(-c3nc4ccc(C)cc4cc3C#N)c[nH]c2c1
Active |  |  | COc1ccc2[nH]cc(-c3nc4ccccc4cc3C#N)c2c1
Active |  |  | Cc1ccc2nc(-c3c[nH]c4ccc(Cl)cc34)c(C#N)cc2c1
Active | 890 | Dose-dependent effect | COc1ccc2c(-c3nc4ccccc4cc3C#N)c[nH]c2c1
Active |  |  | Cn1cc(-c2nc3ccccc3cc2C#N)c2ccccc21
Active |  |  | N#Cc1cc2ccccc2nc1-c1c[nH]c2ccccc12
Active |  |  | N#Cc1cc2ccccc2nc1-c1c[nH]c2ccc(Br)cc12
Active |  |  | N#Cc1cc2ccccc2nc1-c1c[nH]c2ccc(Cl)cc12
Active |  |  | COc1ccc2[nH]cc(-c3nc4ccc(C)cc4cc3C#N)c2c1
